Earlier results, collected in article PMC4894568 (PLoS ONE, 2016).

How the values were obtained:
[1] = tested on: Influenza A virus
[2] = tested on: Influenza A virus; conditions: mouse, in vivo

Substance: LL-37
- infectivity of Influenza A virus [1]: influenced the infectivity
- infection with Influenza A virus in an infection model [2]: prevented or inhibited the infection
